According to patent US4675395A, “Cyclodextrin inclusion compound and process for its preparation” (Seiwa Technological Laboratories Limited, priority 1985, dated 1987):

Experiments:
[1] = background statement; cited from earlier work
physchem = conditions: water
[2] = cited from earlier work

For CC(C)c1cccc(=O)c(O)c1 [hinokitiol], the “bactericidal and bacteriostatic activity” value [1] is listed as “strong”, the solubility (physchem) is listed as no more than 5 mM and the “solubility in water at 25° C.” value [2] is listed as “about 0.12%”.
